Consider one compound from PMC5361737, “Potent and Selective KDM5 Inhibitor Stops Cellular Demethylation of H3K4me3 at Transcription Start Sites and Proliferation of MM1S Myeloma Cells” (Cell Chemical Biology, 2017).

In data set [1] the test system is cell line derived from human mesenchymal stem cells. The data set can be described thus: Cell viability, mesenchymal stem cells. Type of data set: cell-based. As to conditions: treated for 7 days. The text has this:
Figure S2 related to Figure 1 KDM5B Biochemical assay at different 2 -OG
Stem Cells (B) treated for 7 days. Data plotted represents the mean and standard deviation of four independent
2OG Concentration IC50 (mM) Ki […]

The target of another data set is EP4 (h) (Homo sapiens, UniProt P35408). As to the kind of experiment: Cerep Express Panel, agonist radioligand. Type of data set: binding. The conditions noted are these: read-out: % Inhibition of reference (10 µM).
Chain of EP4 (h) (P35408 whole entry): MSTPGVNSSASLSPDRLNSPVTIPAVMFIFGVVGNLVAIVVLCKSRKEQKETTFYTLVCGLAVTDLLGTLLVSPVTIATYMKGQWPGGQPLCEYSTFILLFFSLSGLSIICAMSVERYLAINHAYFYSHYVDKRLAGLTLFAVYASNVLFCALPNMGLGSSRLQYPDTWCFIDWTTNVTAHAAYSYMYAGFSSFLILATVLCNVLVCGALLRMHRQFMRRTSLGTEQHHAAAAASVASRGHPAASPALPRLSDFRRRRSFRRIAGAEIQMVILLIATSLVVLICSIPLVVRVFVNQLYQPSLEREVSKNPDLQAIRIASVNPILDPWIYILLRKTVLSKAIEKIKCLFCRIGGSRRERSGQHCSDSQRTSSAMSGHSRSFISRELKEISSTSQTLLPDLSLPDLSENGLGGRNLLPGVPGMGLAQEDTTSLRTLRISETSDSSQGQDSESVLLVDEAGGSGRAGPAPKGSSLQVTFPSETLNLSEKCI
Another data set has as its target B2 (h) (Homo sapiens, UniProt P30411). As to the kind of experiment: Cerep Express Panel, agonist radioligand. Type of data set: binding. The conditions noted are these: read-out: % Inhibition of reference (10 µM).
For another data set, the target named is D2S (h) (Homo sapiens, UniProt P14416). As to the kind of experiment: Cerep Express Panel, antagonist radioligand. Type of data set: binding. The conditions noted are these: read-out: % Inhibition of reference (10 µM).
Chain of D2S (h) (P14416 1-414 isoform P14416-2): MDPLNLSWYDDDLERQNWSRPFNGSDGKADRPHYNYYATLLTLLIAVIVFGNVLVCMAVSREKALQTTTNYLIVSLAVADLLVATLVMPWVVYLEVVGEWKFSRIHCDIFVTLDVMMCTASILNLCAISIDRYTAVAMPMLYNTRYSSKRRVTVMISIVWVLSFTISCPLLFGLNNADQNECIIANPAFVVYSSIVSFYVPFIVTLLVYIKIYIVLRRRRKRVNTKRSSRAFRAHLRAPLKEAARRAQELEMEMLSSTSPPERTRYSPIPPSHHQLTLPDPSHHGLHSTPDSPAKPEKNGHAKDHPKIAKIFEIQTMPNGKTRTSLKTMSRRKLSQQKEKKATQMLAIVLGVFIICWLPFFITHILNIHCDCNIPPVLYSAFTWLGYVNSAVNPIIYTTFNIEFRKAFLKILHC
A further data set has as its target NK2 (h) (Homo sapiens, UniProt P21452). The data set can be described thus: Cerep Express Panel, agonist radioligand. Type of data set: binding. As to conditions: read-out: % Inhibition of reference (10 µM).
Data set [2] deals with endogenous KDM5 demethylases. As to the kind of experiment: IF assay of endogenous H3K4me3 in untransfected HeLa cells. The conditions noted are these: 48 hr. Type of data set: cell-based, human. Here is the method:
In brief, cells were transiently transfected with either the FLAG-tagged WT or mutant demethylase described above, using Lipofectamine 2000 (Life Technologies). Four hours after transfection the cells were treated with serial dilutions of compound for 24 hr. The cells were subsequently fixed and stained with an anti-FLAG antibody (Sigma F3165) as well as an anti-methylated histone antibody (H3K4me3 Diagenode C15410003, H3K9me2 Abcam ab1220, H3K9me3 Abcam ab8898, H3K27me3 Millipore 07–449, or H3K36me2 Active Motif 61019). The secondary antibodies were labeled with either Alexa Fluor 488 or 568 (Life Technologies). Image acquisition was conducted using the Operetta High Content Imaging System (PerkinElmer) and image analysis was performed with the Columbus software (PerkinElmer). After the DAPI-stained nuclei were automatically identified, a minimum threshold for anti-FLAG intensity was set so that only cells highly expressing the demethylase were analyzed. Assays assessing the endogenous H3K4me3 methyl mark changes were performed accordingly without overexpressing KDM5 after compounds treatment for 48 hr.
Figure S1 related to Figure 2 Inhibition of KDM4/5 mediated H3K4me3
(A) EC50 curves of KDOAM-20, KDOAM-21 and KDOAM-32 in KDM5B and KDM4C (B)
and KDOAM-32 in untransfected HeLa cells.
(1 picture or pasted object on this page, not shown here)

For the next data set, the target named is V1a (h) (Homo sapiens, UniProt P37288). As to the kind of experiment: Cerep Express Panel, agonist radioligand. Type of data set: binding. As to conditions: read-out: % Inhibition of reference (10 µM).
Chain of V1a (h) (P37288 whole entry): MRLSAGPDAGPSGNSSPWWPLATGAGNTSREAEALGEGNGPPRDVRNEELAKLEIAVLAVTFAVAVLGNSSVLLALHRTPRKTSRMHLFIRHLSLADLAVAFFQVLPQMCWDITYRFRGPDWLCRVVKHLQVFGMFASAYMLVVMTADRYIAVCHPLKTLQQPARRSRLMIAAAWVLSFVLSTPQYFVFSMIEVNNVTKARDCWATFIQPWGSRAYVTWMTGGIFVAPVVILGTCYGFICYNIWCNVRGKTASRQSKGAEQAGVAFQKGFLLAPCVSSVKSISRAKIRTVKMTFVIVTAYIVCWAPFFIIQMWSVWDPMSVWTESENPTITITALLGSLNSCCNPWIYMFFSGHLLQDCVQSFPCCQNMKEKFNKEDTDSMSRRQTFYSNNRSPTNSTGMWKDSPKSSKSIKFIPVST
The target in a further data set is NK3 (h) (Homo sapiens, UniProt P29371). As to the kind of experiment: Cerep Express Panel, antagonist radioligand. Type of data set: binding. The conditions noted are these: read-out: % Inhibition of reference (10 µM).
Chain of NK3 (h) (P29371 whole entry): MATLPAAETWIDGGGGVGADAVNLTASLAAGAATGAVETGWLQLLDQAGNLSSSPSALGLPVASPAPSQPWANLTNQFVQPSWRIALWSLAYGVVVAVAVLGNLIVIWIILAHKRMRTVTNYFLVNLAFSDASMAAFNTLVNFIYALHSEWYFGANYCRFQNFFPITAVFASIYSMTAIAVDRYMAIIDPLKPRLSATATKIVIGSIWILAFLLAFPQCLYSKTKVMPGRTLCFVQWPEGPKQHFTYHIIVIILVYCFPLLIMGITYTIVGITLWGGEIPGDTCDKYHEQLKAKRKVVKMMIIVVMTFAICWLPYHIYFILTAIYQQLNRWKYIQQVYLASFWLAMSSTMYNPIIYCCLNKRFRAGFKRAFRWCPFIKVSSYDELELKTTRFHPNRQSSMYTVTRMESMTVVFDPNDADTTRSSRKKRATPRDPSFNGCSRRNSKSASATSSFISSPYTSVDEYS
Another data set deals with H2 (h) (Homo sapiens, UniProt P25021). As to the kind of experiment: Cerep Express Panel, antagonist radioligand. The data set is classed as binding. The conditions noted are these: read-out: % Inhibition of reference (10 µM).
Chain of H2 (h) (P25021 whole entry): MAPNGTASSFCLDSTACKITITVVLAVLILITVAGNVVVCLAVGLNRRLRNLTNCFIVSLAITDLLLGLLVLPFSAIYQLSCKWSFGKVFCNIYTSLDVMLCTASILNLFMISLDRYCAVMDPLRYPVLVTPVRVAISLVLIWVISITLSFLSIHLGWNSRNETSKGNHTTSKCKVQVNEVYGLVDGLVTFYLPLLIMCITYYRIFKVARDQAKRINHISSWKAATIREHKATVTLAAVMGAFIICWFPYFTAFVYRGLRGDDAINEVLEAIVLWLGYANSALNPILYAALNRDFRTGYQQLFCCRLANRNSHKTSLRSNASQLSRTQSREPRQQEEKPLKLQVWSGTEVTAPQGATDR
Another data set deals with BZD (central). As to the kind of experiment: Cerep Express Panel, agonist radioligand. Type of data set: binding.
Data set [3] concerns panel of 55 receptors and enzymes. As to the kind of experiment: CEREP express panel of 55 common off-targets. Type of data set: binding. As to conditions: 10 µM.
The test system of data set [4] is KDM5A and KDM5C (other KDM5 family members). The data set can be described thus: IF assay, HeLa cells overexpressing the other KDM5 family members. The data set is classed as cell-based, human. As to conditions: overexpression IF assay, 24 hr, read-out: inhibitory concentration, other KDM5 family members. The text has this:
(§1) The human cervical carcinoma cell line HeLa was obtained from the American Type Cultures Collection and maintained in Eagle's minimal essential media (Sigma-Aldrich) supplemented with 10% heat-inactivated fetal bovine serum (Life Technologies). Full-length cDNA for KDM5B (JARID1B, Q9UGL1, cDNA), KDM5C (JARID1C, P41229, IMAGE 5492114), KDM4B (JMJD2B, O94953, gift from ICR), KDM4C (JMJD2C, Q9H3R0, 8143862), KDM3A (JMJD1A, Q9Y4C1, 4823253), KDM2A (FBXL11, Q9Y2K7, 5534384), and KDM6B (JMJD3, O15054, cDNA) were amplified by PCR from either an MGC clone or a commercial cDNA source, or received as a gift from collaborators and cloned into pDONR-221 vector using Gateway BP reaction producing Gateway entry clones.
(§2) […]. Mutations were introduced into full-length KDM Gateway entry clones using 15 cycles of the QuikChange II PCR protocol (Agilent Technologies). […]
(§3) In brief, cells were transiently transfected with either the FLAG-tagged WT or mutant demethylase described above, using Lipofectamine 2000 (Life Technologies). […] After the DAPI-stained nuclei were automatically identified, a minimum threshold for anti-FLAG intensity was set so that only cells highly expressing the demethylase were analyzed. […]

The subject of data set [5] is other tested JmjC family members. The data set can be described thus: IF assay, HeLa cells overexpressing other JmjC family members. The data set is classed as cell-based, human. As to conditions: overexpression IF assay, 24 hr.
Text: as §1, §2, §3

The next data set has as its system Cl- channel (GABA-gated). As to the kind of experiment: Cerep Express Panel, antagonist radioligand. The data set is classed as binding.

“Also recorded” adds a separate entry of the source.

Chain of NK2 (h) (P21452 whole entry): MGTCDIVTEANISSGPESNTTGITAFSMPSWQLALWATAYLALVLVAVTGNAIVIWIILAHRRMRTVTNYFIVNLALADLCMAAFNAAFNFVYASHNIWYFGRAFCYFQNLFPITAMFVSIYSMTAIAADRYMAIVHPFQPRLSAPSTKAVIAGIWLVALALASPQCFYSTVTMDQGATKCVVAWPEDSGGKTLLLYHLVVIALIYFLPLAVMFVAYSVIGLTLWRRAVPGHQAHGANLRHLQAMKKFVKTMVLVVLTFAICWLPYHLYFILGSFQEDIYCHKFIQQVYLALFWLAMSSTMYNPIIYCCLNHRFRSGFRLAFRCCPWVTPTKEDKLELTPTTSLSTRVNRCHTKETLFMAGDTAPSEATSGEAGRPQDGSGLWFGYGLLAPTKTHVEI
Chain of B2 (h) (P30411 whole entry): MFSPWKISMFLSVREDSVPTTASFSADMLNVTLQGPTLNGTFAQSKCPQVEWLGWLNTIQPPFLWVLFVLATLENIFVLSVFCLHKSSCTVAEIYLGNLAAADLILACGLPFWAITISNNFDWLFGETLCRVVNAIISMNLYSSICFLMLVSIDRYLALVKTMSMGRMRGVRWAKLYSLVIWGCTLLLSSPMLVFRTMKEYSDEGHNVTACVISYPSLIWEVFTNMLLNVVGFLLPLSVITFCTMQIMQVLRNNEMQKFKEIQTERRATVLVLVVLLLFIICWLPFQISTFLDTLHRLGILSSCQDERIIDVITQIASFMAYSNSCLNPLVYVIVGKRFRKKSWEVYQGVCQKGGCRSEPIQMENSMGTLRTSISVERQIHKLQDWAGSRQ

`CCN(CCN(C)C)C(=O)CNCc1cc(C(N)=O)ccn1` [KDOAM-25]: the “effect on viability of mesenchymal stem cells” value in [1] is “does not decrease cell viability; also recorded: did not show the same decrease in viability”. Besides, the inhibition at 10 µM at EP4 (h) was -15%; at B2 (h), -10%; on D2S (h), 19%; on NK2 (h), 3%; at V1a (h), -4%; at NK3 (h), -8%. For the same compound, on H2 (h), the inhibition at 10 µM is -16%. In addition, the “inhibition of endogenous KDM5 demethylases, potency in words” value in data set [2] is “potencies similar to those seen in the overexpression assay”. Besides, the results for the “% Inhibition of reference (10 µM)” value in the data set with BZD (central) and with Cl- channel (GABA-gated) were -42% and -2%, respectively. In addition, in [3], the “off-target inhibition in CEREP express panel, in words” value is on record as “no inhibition; also recorded: no off-target activity; also recorded: devoid of off-target activity”. Besides, the IC50 in [4] was greater than 100 µM. The “cellular activity on other tested JmjC family members” value in [5] is “no cellular activity; also recorded: no effect”.
